In patent US10947598B2, “Methods for determining the metabolic status of lymphomas” (INSERM (Institut National de la Sante et de la Recherche …, priority 2015, dated 2021):
Entries after “also recorded” stand apart in the source; their conditions may differ.

Assays:
[1] = test system: Eμ-Myc cells (mouse primary B lymphoma cells), gapdh^low vs gapdh^high; assay: Cell death assay (DAPI staining, flow cytometry); type: cell-based
Protocol: C57BL/6 Eμ-Myc transgenic mice were purchased from the Jackson Laborator.
Eμ-Myc cells (0.2×10^6) were seeded in 96 well-plates in the presence or absence of 200 μM of phenformin (Sigma) for 24 hours and 48 hours. Cells were then labeled with DAPI (Molecular Probes; 0.5 μg/mL) and analyzed immediately by flow cytometry using a MACSQuant Analyzer (Miltenyi Biotec).

[2] = test system: Eμ-Myc cells (mouse primary B lymphoma cells), gapdh^low vs gapdh^high; assay: Proliferation assay (proliferation index, DAPI exclusion); type: cell-based; details: phenformin 50 μM, 24 and 48 hours
Protocol: Mouse primary Eμ-Myc clones (B lymphoma cells) obtained from lymphomas of different C57BL/6 Eμ-Myc transgenic mice were isolated as described previously (Lindemann et al., 2007) and maintained in DMEM supplemented with 10% FCS, 2-mercaptoethanol (50 μM), L-asparagin (0.37 mM) and HEPES (pH 7.4, 10 mM). C57BL/6 Eμ-Myc transgenic mice were purchased from the Jackson Laborator.
Eμ-Myc cells (0.2×10^6) were seeded in 96 well-plates in the presence or absence of 50 μM of Phenformin for 0, 24 and 48 hours. Number of living and dead cells was counted using DAPI staining exclusion by flow cytometry (MACSQuant Analyser, Miltenyi Biotec). Proliferation index were calculated by dividing the number of living cells obtained for each day by the one obtained the day of seeding (day 0).

[3] = test system: Eμ-Myc-gapdh^low lymphoma; assay: Animal study: lymphoma transfer of Eμ-Myc-gapdh^low cells into syngeneic C57BL/6 mice; type: in vivo, mouse; details: Eμ-Myc-gapdh^low-bearing mice; 200 mg/kg/day phenformin in drinking water for 12 days; FIG. 5
Protocol: Lymphoma transfer of a isolated Eμ-Myc clone was realized into syngeneic, nontransgenic, 6-week-old C57BL/6 females by tail vein injection of 0.1×10^6 viable Eμ-Myc lymphoma cells per recipient mouse (in 150 μL of sterile PBS). Phenformin treated group received 200 mg/kg/day phenformin in the drinking water for 12 days. Phenformin powder was dissolved every two days in the drinking water, taking into account the mouse body weight and the volume of water consumed each day. Untreated mice (controls) received water (n=10 mice/group). Food was given ad libitum. The first signs of the pathology were determined by inguinal lymph node palpation and analyses of blood sample with Hemavet 950FS (Drew Scientific, INC, France). Progression-free survival was determined by the time between the iv injection of the cell and the appearance of enlarged lympho nodes. Lymphoma-bearing animals were killed by cervical dislocation as soon as they presented signs of illness. Upon sacrifice all lymph node tumors and spleen are immediately collected and weighted. All mice were maintained in specific pathogen-free conditions and experimental procedures were approved by the Institutional Animal Care and Use Committee and by the regional ethics committee (PEA232 from Comité Institutionnel d'Ethique Pour l'Animal de Laboratoire—AZUR).

Molecule	Sensitivity to L-asparaginase (cell death) ([1]; Eμ-Myc-gapdh^high cells silenced for gapdh (shgapdh) vs control, L-asparaginase 0.3 UI/ml, 24 hours, FIG. 4C)	Sensitivity to L-asparaginase (cell death) ([1]; Eμ-Myc-gapdh^low vs Eμ-Myc-gapdh^high clones, L-asp 0.3 UI/ml, 1.0 UI/ml, 24 hours, FIG. 3C)	Sensitivity to phenformin (cell death) ([1]; Eμ-Myc-gapdh^high cells silenced for gapdh (shgapdh) vs control, phenformin 100 μM, 24 and 48 hours, FIG. 4A)	Sensitivity to phenformin (cell death) ([1]; Eμ-Myc-gapdh^low vs Eμ-Myc-gapdh^high clones, phenformin 200 μM, 24 hours, FIG. 3A)	Sensitivity to phenformin (proliferation index) ([2]; Eμ-Myc-gapdh^high cells silenced for gapdh (shgapdh) vs control, FIG. 4B)	Sensitivity to phenformin (proliferation index) ([2]; Eμ-Myc-gapdh^low vs Eμ-Myc-gapdh^high clones, FIG. 3B)	B lymphoma progression (progression-free survival, size of axillary lymphomas and spleen) [3]
L-asparaginase	more sensitive; also recorded: sensitizes	more sensitive					
[H]/N=C(/N)N/C(=N/[H])NCCc1ccccc1 [phenformin]			more sensitive; also recorded: sensitizes	more sensitive	more sensitive	more sensitive	reduced
